Results taken from US11964943B2, “3,5-diarylidenyl-n-substituted-piperid-4-one-derived inhibitors of Stat3 pathway activity and uses thereof” (priority 2017, dated 2024).

Tested on: HCT116-oxaliplatin resistant cells
Assay: Colony formation assay with oxaliplatin
Assay type: cell-based
Conditions: 1 μM oxaliplatin alone, 10 days
Experimental: HCT116-oxaliplatin res cells were seeded at 2000 cells/well in 6-well plates and allowed to adhere overnight. The next day, oxaliplatin and IE-8 were added simultaneously. First, the specific amount of cells solution was removed from each well and afterwards the same volume of the appropriate drug dilution was added to achieve the right concentration. IE-8 was diluted in DMA. Cells were also treated with Oxaliplatin and IE-8 alone. The plates were left the incubator and the cells were allowed to grow colonies for 10 days. After 10 days the entire cell solution was removed from each well, which was subsequently washed with 500 μl of PBS. 1 ml of cold 100% methanol was added and the plates were incubated for 30 minutes at 4 C. After a second wash, the cells were stained with 1 ml of […] staining dye for 2-3 minutes, rinsed with water, allowed to dry overnight and the colonies were quantified using a gel imaging system (Fusion Fx7) and its in-built colony counter software.

O=C(O)C(=O)O.[NH-][C@@H]1CCCC[C@H]1[NH-].[Pt+2] [Oxaliplatin, reference compound]
number of colonies: about 260
